Patent publication US20170121683A1, “ARYL HYDROCARBON RECEPTOR DISRUPTION AND ENHANCEMENT” (priority 2015, published 2017)

Assays:
[1] = tested on: hESC-derived hematopoietic cells; experiment: NK cell differentiation from spin-EBs on OP9-DL1, flow cytometry (Example 2); assay type: cell-based, human; details: Days 11+21 and 11+28, 1 μM SR-1 or 10 nM TCDD
Experimental: FIG. 13A. Schema of hESC differentiation into lymphoid cells as spin-embryoid bodies (spin-EBs). hESCs are made into spin-EBs at Day 0 and cultured in Stage 1 conditions with defined cytokines to promote mesoderm development for 11 days. At Day 11, spin-EBs are transferred onto OP9-DL1 in the presence of NK cell differentiation media (NKDM) to promote lymphoid differentiation. Cells are treated beginning at Day 11+0 with either 1 μM SR-1, 10 nM TCDD, or DMSO vehicle control with media exchanges and/or harvesting performed every week for up to 4 weeks. FIG. 13B. At Day 11, differentiated spin-EBs (photo) are phenotyped for CD34^+CD45^+ expression and transferred to OP9-DL1 stroma in NKDM. Non-adherent hematopoietic cells cultured either in the presence of DMSO, SR-1, or TCDD were assessed for developing NK cell immunophenotype based on CD56^+CD45^+ expression at Days 11+21, and 11+28; representative flow cytometry plots from one differentiation are shown. FIG. 13C. Quantification of fold-change in total percentage of CD56^+CD45^+ cells at both Day 11+21 and Day 11+28 when treated with DMSO, SR-1, or TCDD. SR-1 and TCDD treatments for each differentiation are normalized to DMSO controls. n=3 independent differentiation experiments, error bars represent SEM, *p<0.05 as assessed with two-way ANOVA+Tukey-Kramer multiple comparisons post-hoc test. FIG. 13D. […]

hESCs = experiment: Viability of hESC-derived cells, Sytox Blue Live/Dead Stain; assay type: cell-based, human; details: 1 μM SR-1 or 10 nM TCDD
Experimental: FIG. 8A. Non-adherent hematopoietic progenitor cells derived from hESCs were harvested at Day 6+3, Day 6+5, Day 6+7, and Day 6+9 time points and probed for gene expression by quantitative real-time PCR (qPCR). For each gene, Ct values were normalized to GAPDH at each time point and data is presented as relative fold-change as compared to undifferentiated hESCs. […] FIG. 8B Undifferentiated hESCs were cultured in the presence of 1 μM SR-1, 10 nM TCDD, or DMSO vehicle control for 96 hours and probed for gene expression by qPCR. For each gene, Ct values were normalized to GAPDH at each time point and data is presented as relative fold-change as compared to DMSO treated hESCs. n=3, error bars represent SEM, *p<0.05 assessed by two-way ANOVA+Tukey-Kramer multiple comparisons post-hoc test. FIG. 8C. Both adherent and non-adherent cell fractions treated with either DMSO, SR-1, or TCDD were harvested at Day 6+3, Day 6+6, and Day 6+9 and probed for viability with Sytox Blue Live/Dead Stain. […]
Harvested cells were incubated with PE-Cy7 CD34 (BD Biosciences, San Jose, Calif.) in conjunction with APC CD31, APC CD41a, APC CD43, or APC CD45 for 30 minutes at 4° C. in FACS buffer (DPBS containing 2% fetal bovine serum and 0.1% sodium azide). […] Cells were analyzed using an LSRII flow cytometer (BD Biosciences) and data were analyzed using FlowJo software (TreeStart, Ashland, Oreg.).

SMILES | development of NK cells (CD56+CD45+) compared to DMSO treated controls [1] | cytotoxic effects on hESCs (hESCs)
CC(C)n1cnc2c(NCCc3ccc(O)cc3)nc(-c3csc4ccccc34)nc21 [SR-1, StemReginin-1] | increased development of NK cells | no significant cytotoxic effects
Clc1cc2c(cc1Cl)Oc1cc(Cl)c(Cl)cc1O2 [TCDD, 2,3,7,8-tetrachlorodibenzo-p-dioxin] | fewer phenotypic NK cells | no significant cytotoxic effects
